We go through 5 molecules from US20230114728A1 (Venatorx Pharmaceuticals, Inc., priority 2019, published 2023).

Holding throughout (assay): Broth microdilution MIC in iron-depleted CAMHB (IDM)
What all share (type): cell-based

Assay [1] relates to A. baumannii CDC-0045 producing TEM-1D, OXA-23, and OXA-69. The settings on record: Acinetobacter baumannii, read-out: Minimum Inhibitory Concentration, CDC-0045.
The subject of assay [2] is P. aeruginosa CDC-0054 producing VIM-4, OXA-50, and PAO. The settings on record: Pseudomonas aeruginosa, read-out: Minimum Inhibitory Concentration, P. aeruginosa CDC-0054. Put shortly: (§1)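 MIC read by eye as the lowest concentration with no bacterial growth, following CLSI microdilution in iron-depleted cation-adjusted Mueller-Hinton broth at pH 7.3. Starting inoculum 2-8×10^5 CFU/mL; incubation 37° C, 16-20 h for Pseudomonas, 20-24 h for Acinetobacter.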

Assay [3] has as its system A. baumannii CDC-0033 producing NDM-1, and OXA-94. The settings on record: Acinetobacter baumannii, read-out: Minimum Inhibitory Concentration, CDC-0033. Summed up: as §1
In assay [4] the test system is P. aeruginosa CDC-0095 producing OXA-50, and PAO. The settings on record: Pseudomonas aeruginosa, read-out: Minimum Inhibitory Concentration, P. aeruginosa CDC-0095. Put shortly:
as §1

The test system of assay [5] is A. baumannii CDC-0083 producing NDM-1, PER-7, OXA-23, and OXA-69. The settings on record: Acinetobacter baumannii, read-out: Minimum Inhibitory Concentration, CDC-0083. Put shortly:
as §1

Another assay concerns A. baumannii ATCC 17978. The settings on record: Acinetobacter baumannii, ATCC17978, read-out: Minimum Inhibitory Concentration, ATCC 17978. Summed up:
as §1

Another assay relates to P. aeruginosa ATCC 27853. The settings on record: Pseudomonas aeruginosa, ATCC27853, read-out: Minimum Inhibitory Concentration, P. aeruginosa ATCC 27853. Put shortly: as §1
For assay [6], the system named is A. baumannii CDC-0036 OXA-65, and OXA-24. The settings on record: Acinetobacter baumannii, read-out: Minimum Inhibitory Concentration, CDC-0036. Put shortly: as §1
The test system of assay [7] is P. aeruginosa CDC-0090 producing KPC-5, OXA-50, and PAO. The settings on record: Pseudomonas aeruginosa, read-out: Minimum Inhibitory Concentration, P. aeruginosa CDC-0090. Summed up:
as §1

Another assay has as its system A. baumannii ATCC 19606. The settings on record: Acinetobacter baumannii, ATCC19606, read-out: Minimum Inhibitory Concentration, ATCC 19606. Put shortly:
as §1

The subject of assay [8] is P. aeruginosa (ΔmexAB-oprM). The settings on record: Pseudomonas aeruginosa, read-out: Minimum Inhibitory Concentration, P. aeruginosa ΔmexAB-OprM. Put shortly:
as §1

A further assay has as its system P. aeruginosa ATCC 35151. The settings on record: Pseudomonas aeruginosa, ATCC35151; iron-depleted MHB (IDM); hyper-permeable strain; read-out: Minimum Inhibitory Concentration, P. aeruginosa ATCC 35151. Summed up: as §1

Values after ≈ are worked out from the molar mass of the structure shown.

Regarding `NCCCN1CCN(C(=O)N[C@@H](C(=O)N[C@H]2Cc3cc(Cl)c(F)c(C(=O)O)c3OB2O)c2c(F)cc(O)c(O)c2Cl)C(=O)C1=O` [Example 190, (R)-3-((R)-2-(4-(3-aminopropyl)-2,3-dioxopiperazine-1-carboxamido)-2-(2-chloro-6-fluoro-3,4-dihydroxyphenyl)acetamido)-6-chloro-7-fluoro-2-hydroxy-3,4-dihydro-2H-benzo[e][1,2]oxaborinine-8-carboxylic acid], the MIC in assay [1] was more than 128 µg/mL; in [2], 8 to 16 µg/mL (≈ 11.9 to 23.7 µM); in assay [3] it was more than 128 µg/mL; in assay [4] it was 8 to 16 µg/mL (≈ 11.9 to 23.7 µM); in assay [5], more than 128 µg/mL; in the assay with A. baumannii ATCC 17978, 8 to 16 µg/mL (≈ 11.9 to 23.7 µM). Also, the MIC is 2 to 4 µg/mL (≈ 2.97 to 5.93 µM) with P. aeruginosa ATCC 27853; more than 128 µg/mL in assay [6]; 0.5 to 1 µg/mL (≈ 0.742 to 1.48 µM) in assay [7]; more than 128 µg/mL in the assay on A. baumannii ATCC 19606; 0.25 µg/mL (≈ 0.371 µM) in assay [8]; 0.5 to 1 µg/mL (≈ 0.742 to 1.48 µM) with P. aeruginosa ATCC 35151.

Consider `CCN1CCN(C(=O)N[C@@H](C(=O)N[C@H]2Cc3cc(Cl)c(F)c(C(=O)O)c3OB2O)c2c(F)cc(O)c(O)c2Cl)C(=O)C1=O` [Example 191, (R)-6-chloro-3-((R)-2-(2-chloro-6-fluoro-3,4-dihydroxyphenyl)-2-(4-ethyl-2,3-dioxopiperazine-1-carboxamido)acetamido)-7-fluoro-2-hydroxy-3,4-dihydro-2H-benzo[e][1,2]oxaborinine-8-carboxylic acid], for which the MIC in [1] was more than 128 µg/mL; in [2], 2 to 4 µg/mL (≈ 3.1 to 6.2 µM); in [3], more than 128 µg/mL; in assay [4] it was 8 to 16 µg/mL (≈ 12.4 to 24.8 µM); in [5], more than 128 µg/mL; in the assay with A. baumannii ATCC 17978 it was 2 to 4 µg/mL (≈ 3.1 to 6.2 µM). Moreover, the MIC in the assay with P. aeruginosa ATCC 27853 is 2 to 4 µg/mL (≈ 3.1 to 6.2 µM); in [6], 32 to 64 µg/mL (≈ 49.6 to 99.2 µM); in assay [7], 8 to 16 µg/mL (≈ 12.4 to 24.8 µM); in the assay with A. baumannii ATCC 19606, 8 to 16 µg/mL (≈ 12.4 to 24.8 µM); in [8], 0.25 µg/mL (≈ 0.387 µM); with P. aeruginosa ATCC 35151 it was 0.25 µg/mL (≈ 0.387 µM).

For `CS(=O)(=O)N1CCN(C(=O)NC(C(=O)N[C@H]2Cc3ccc(F)c(C(=O)O)c3OB2O)c2c(Cl)cc(O)c(O)c2F)C1=O` (stereo partly drawn) [Example 208, (3R)-3-(2-(6-chloro-2-fluoro-3,4-dihydroxyphenyl)-2-(3-(methylsulfonyl)-2-oxoimidazolidine-1-carboxamido)acetamido)-7-fluoro-2-hydroxy-3,4-dihydro-2H-benzo[e][1,2]oxaborinine-8-carboxylic acid], the MIC in [1] is more than 128 µg/mL; in assay [2], 32 to 64 µg/mL (≈ 50.6 to 101 µM); in assay [3] it was 32 to 64 µg/mL (≈ 50.6 to 101 µM); in assay [4], 32 to 64 µg/mL (≈ 50.6 to 101 µM); in assay [5], more than 128 µg/mL; with A. baumannii ATCC 17978 it was 0.5 to 1 µg/mL (≈ 0.79 to 1.58 µM). Moreover, the MIC in the assay on P. aeruginosa ATCC 27853 is 2 to 4 µg/mL (≈ 3.16 to 6.32 µM); in assay [6] it was 8 to 16 µg/mL (≈ 12.6 to 25.3 µM); in assay [7], 2 to 4 µg/mL (≈ 3.16 to 6.32 µM); in the assay with A. baumannii ATCC 19606, 2 to 4 µg/mL (≈ 3.16 to 6.32 µM); in [8] it was 2 to 4 µg/mL (≈ 3.16 to 6.32 µM); in the assay on P. aeruginosa ATCC 35151, 0.25 µg/mL (≈ 0.395 µM).

For the molecule `CCN1CCN(C(=O)N[C@H](C(=O)N[C@H]2Cc3ccc(F)c(C(=O)O)c3OB2O)c2ccc(O)c(O)c2)C(=O)C1=O` [Example 210, (R)-3-((S)-2-(3,4-dihydroxyphenyl)-2-(4-ethyl-2,3-dioxopiperazine-1-carboxamido)acetamido)-7-fluoro-2-hydroxy-3,4-dihydro-2H-benzo[e][1,2]oxaborinine-8-carboxylic acid], the MIC (in assay [1]; in assay [2]; in [3]; in [4]; in [5]; in the assay on A. baumannii ATCC 17978) was more than 128 µg/mL throughout. Moreover, the MIC was more than 128 µg/mL in the assay on P. aeruginosa ATCC 27853; more than 128 µg/mL in [6]; more than 128 µg/mL in assay [7]; more than 128 µg/mL in the assay on A. baumannii ATCC 19606; 8 to 16 µg/mL (≈ 14.3 to 28.7 µM) in assay [8]; 2 to 4 µg/mL (≈ 3.58 to 7.16 µM) with P. aeruginosa ATCC 35151.

For the molecule `CCN1CCN(C(=O)N[C@@H](C(=O)N[C@H]2Cc3ccc(F)c(C(=O)O)c3OB2O)c2ccc(O)c(O)c2)C(=O)C1=O` [Example 211, (R)-3-((R)-2-(3,4-dihydroxyphenyl)-2-(4-ethyl-2,3-dioxopiperazine-1-carboxamido)acetamido)-7-fluoro-2-hydroxy-3,4-dihydro-2H-benzo[e][1,2]oxaborinine-8-carboxylic acid], the MIC in assay [1] was more than 128 µg/mL; in assay [2] it was 8 to 16 µg/mL (≈ 14.3 to 28.7 µM); in assay [3] it was 32 to 64 µg/mL (≈ 57.3 to 115 µM); in [4] it was 8 to 16 µg/mL (≈ 14.3 to 28.7 µM); in assay [5] it was more than 128 µg/mL; in the assay on A. baumannii ATCC 17978, 2 to 4 µg/mL (≈ 3.58 to 7.16 µM). Besides, the MIC in the assay on P. aeruginosa ATCC 27853 was 8 to 16 µg/mL (≈ 14.3 to 28.7 µM); in [6], 8 to 16 µg/mL (≈ 14.3 to 28.7 µM); in assay [7], 8 to 16 µg/mL (≈ 14.3 to 28.7 µM); in the assay with A. baumannii ATCC 19606 it was 2 to 4 µg/mL (≈ 3.58 to 7.16 µM); in [8], 0.25 µg/mL (≈ 0.448 µM); with P. aeruginosa ATCC 35151, 0.25 µg/mL (≈ 0.448 µM).
